Consider six molecules from ChEMBL document CHEMBL1201862, “PubChem BioAssay data set” (2004).

Active and inactive are the calls of the source.

For experiment [1], the target named is Sphingosine 1-phosphate receptor 2 (Homo sapiens, UniProt O95136). Briefly: Late stage counterscreen assay for S1P4 antagonists: Fluorescence dose response cell-based screening assay for antagonists of the Sphingosine 1-Phosphate Receptor 2 (S1P2). [Related pubchem assays (depositor defined):AID1510, AID1524, AID1692, AID1853, AID2332, AID489009, AID489017]. The format is functional.
Chain of Sphingosine 1-phosphate receptor 2 (O95136 whole entry): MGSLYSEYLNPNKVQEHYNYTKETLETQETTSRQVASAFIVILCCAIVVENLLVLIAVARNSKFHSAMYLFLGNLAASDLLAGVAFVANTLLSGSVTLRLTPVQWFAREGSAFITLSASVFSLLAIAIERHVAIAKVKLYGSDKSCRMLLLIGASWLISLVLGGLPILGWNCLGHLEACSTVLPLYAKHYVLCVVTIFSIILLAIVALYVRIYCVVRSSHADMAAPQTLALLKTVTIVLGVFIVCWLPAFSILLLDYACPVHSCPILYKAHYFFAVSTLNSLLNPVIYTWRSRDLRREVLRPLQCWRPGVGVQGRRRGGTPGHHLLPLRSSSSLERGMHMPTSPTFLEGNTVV

Experiment [2] deals with T1, Sphingosine 1-phosphate receptor 4 (Homo sapiens, UniProt O95977).
T1 sequence (O95977 whole entry): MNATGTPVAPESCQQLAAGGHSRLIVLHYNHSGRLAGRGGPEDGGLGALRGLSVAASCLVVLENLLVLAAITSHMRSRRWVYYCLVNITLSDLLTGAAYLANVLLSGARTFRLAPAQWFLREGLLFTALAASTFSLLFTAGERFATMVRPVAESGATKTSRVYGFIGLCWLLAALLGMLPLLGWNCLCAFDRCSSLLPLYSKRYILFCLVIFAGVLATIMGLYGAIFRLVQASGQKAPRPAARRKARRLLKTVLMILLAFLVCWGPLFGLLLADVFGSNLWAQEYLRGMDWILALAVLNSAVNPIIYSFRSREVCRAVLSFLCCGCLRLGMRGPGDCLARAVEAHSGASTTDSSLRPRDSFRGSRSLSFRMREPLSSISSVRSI
Briefly: S1P4 receptor antagonists, human, late-stage follow-up, cell-based, fluorescence, synthesized analogues (AID 2346). Format: functional.

Experiment [3] addresses Sphingosine 1-phosphate receptor 5 (Homo sapiens, UniProt Q9H228). Briefly: Late stage counterscreen assay for S1P4 antagonists: Fluorescence dose response cell-based screening assay for antagonists of the Sphingosine 1-Phosphate Receptor 5 (S1P5). [Related pubchem assays (depositor defined):AID1510, AID1524, AID1692, AID1853, AID2332, AID489009, AID489017]. The format is functional.

For experiment [4], the target named is Sphingosine 1-phosphate receptor 1 (Homo sapiens, UniProt P21453). Briefly: Late stage counterscreen assay for S1P4 antagonists: Fluorescence dose response cell-based screening assay for antagonists of the Sphingosine 1-Phosphate Receptor 1 (S1P1). [Related pubchem assays (depositor defined):AID1510, AID1524, AID1692, AID1853, AID2332, AID489009, AID489017]. Format: functional.
Chain of Sphingosine 1-phosphate receptor 1 (P21453 whole entry): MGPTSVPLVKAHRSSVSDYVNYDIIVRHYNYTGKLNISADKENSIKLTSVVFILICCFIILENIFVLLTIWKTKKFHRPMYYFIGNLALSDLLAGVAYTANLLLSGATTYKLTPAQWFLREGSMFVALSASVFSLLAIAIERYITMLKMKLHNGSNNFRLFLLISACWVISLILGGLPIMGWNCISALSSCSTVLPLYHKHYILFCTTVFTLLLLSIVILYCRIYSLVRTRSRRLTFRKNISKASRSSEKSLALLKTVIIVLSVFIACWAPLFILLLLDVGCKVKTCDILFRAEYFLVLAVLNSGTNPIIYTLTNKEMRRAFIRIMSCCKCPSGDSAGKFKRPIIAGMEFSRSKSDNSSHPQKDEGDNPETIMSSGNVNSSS

The target in experiment [5] is Sphingosine 1-phosphate receptor 3 (Homo sapiens, UniProt Q99500). As to the kind of experiment: Late stage counterscreen assay for S1P4 antagonists: Fluorescence dose response cell-based screening assay for antagonists of the Sphingosine 1-Phosphate Receptor 3 (S1P3). [Related pubchem assays (depositor defined):AID1510, AID1524, AID1692, AID1853, AID2332, AID489009, AID489017]. The format is functional.
Chain of Sphingosine 1-phosphate receptor 3 (Q99500 whole entry): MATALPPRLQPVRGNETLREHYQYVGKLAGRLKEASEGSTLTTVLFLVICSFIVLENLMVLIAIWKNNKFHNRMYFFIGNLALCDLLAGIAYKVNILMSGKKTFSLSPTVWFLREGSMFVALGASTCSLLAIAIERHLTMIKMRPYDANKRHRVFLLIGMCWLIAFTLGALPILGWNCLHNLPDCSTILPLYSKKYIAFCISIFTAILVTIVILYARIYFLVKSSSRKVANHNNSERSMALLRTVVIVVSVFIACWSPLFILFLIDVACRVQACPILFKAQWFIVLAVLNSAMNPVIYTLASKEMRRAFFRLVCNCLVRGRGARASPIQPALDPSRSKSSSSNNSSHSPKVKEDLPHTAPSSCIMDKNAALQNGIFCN

A short description of experiment [6]: Counterscreen for AddAB inhibitors: absorbance-based bacterial cell-based high throughput dose response assay for inhibitors of bacterial viability. [Related pubchem assays (depositor defined):AID435030, AID449728, AID449731, AID488942, AID488955, AID488956]. Format: functional.
Experiment [7] deals with G-protein coupled receptor 55 (Homo sapiens, UniProt Q9Y2T6). As to the kind of experiment: GPR55 antagonists blocking LPI-driven arrestin recruitment, primary screen, imaging, U2OS, beta-arrestin-GFP, LPI agonist (AID 2013).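 Note: antagonist potency measured as reduced agonist-driven arrestin aggregation.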 The format is functional.
Experiment [8] has as its target Exodeoxyribonuclease V (Escherichia coli (strain K12), UniProt P04993+P07648+P08394). Briefly: E. coli RecBCD inhibitors, dose response, counter-screen for AddAB inhibitor project, absorbance, V66 E. coli, mutant T4 phage (AID 492957). The format is functional, cell-based, Escherichia coli str. K-12 substr. MG1655.
Experiment [9] deals with T2, Intestinal-type alkaline phosphatase (Homo sapiens, UniProt P09923). Briefly: human intestinal alkaline phosphatase activators, dose response, biochemical, luminescence, uHTS hits (AID 463120). The format is functional.
T2 sequence (P09923 whole entry): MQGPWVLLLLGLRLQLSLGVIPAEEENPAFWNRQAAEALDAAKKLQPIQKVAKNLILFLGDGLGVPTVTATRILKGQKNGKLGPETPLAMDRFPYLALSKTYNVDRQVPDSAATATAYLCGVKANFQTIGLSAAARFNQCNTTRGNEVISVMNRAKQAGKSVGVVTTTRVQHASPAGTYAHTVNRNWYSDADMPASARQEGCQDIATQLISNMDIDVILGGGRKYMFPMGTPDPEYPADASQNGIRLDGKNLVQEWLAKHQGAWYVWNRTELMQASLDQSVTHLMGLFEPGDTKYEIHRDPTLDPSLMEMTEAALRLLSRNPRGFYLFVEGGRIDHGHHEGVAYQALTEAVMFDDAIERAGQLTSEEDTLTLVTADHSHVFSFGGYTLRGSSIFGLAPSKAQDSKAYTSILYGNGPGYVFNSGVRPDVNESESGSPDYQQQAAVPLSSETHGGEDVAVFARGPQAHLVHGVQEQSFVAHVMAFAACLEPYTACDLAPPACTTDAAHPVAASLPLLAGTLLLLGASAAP
In experiment [10] the target is Intestinal-type alkaline phosphatase (Mus musculus, UniProt P24822). Briefly: PubChem AID 488875. The format is functional.
Chain of Intestinal-type alkaline phosphatase (Mus musculus, UniProt P24822) (P24822 whole entry): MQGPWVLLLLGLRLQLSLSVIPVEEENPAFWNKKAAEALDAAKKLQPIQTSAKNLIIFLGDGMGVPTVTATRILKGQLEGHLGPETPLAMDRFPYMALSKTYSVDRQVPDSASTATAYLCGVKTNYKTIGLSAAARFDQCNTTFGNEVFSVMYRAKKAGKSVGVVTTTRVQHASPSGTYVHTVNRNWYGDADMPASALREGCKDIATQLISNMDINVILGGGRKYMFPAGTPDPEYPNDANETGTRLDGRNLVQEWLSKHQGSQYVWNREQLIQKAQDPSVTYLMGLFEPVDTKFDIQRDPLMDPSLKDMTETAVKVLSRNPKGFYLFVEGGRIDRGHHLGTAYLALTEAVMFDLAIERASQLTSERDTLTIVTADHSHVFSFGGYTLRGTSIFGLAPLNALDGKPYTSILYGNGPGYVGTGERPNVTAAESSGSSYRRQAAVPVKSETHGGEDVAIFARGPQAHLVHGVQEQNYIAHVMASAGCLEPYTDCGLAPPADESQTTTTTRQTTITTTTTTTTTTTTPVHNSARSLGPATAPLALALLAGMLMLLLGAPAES
The target of experiment [11] is T3, Alkaline phosphatase, tissue-nonspecific isozyme (Homo sapiens, UniProt P05186).
T3 sequence (P05186 whole entry): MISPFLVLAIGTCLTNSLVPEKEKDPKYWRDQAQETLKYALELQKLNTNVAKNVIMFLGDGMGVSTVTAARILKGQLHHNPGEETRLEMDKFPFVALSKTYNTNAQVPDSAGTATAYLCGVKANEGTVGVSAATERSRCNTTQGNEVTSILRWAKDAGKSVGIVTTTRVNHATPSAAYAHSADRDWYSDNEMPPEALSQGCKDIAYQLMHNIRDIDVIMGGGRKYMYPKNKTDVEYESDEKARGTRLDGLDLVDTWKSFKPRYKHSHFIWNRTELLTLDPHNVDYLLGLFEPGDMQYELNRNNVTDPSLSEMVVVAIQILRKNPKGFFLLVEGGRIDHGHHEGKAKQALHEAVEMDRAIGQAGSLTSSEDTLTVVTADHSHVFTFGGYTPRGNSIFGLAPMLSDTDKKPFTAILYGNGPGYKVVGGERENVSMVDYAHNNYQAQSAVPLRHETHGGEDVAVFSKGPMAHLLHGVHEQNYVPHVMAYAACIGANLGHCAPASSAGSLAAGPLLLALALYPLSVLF
As to the kind of experiment: TNAP enzyme activators, dose response, selectivity assay for human IAP activator project, biochemical, TNAP isozyme, human IAP uHTS hits (AID 488886).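 Note: potency of compounds raising TNAP activity as a selectivity check on IAP activators.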 The format is functional.

Experiment [12] deals with Streptococcus. Briefly: Group A Streptococcus viability loss, dose response, counter-screen for streptokinase expression inhibitor project, luminescence, BacTiterGlo (AID 1915).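 Note: potency for reduction of bacterial viability or growth.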 The format is functional, organism-based.
For experiment [13], the target named is T2, Intestinal-type alkaline phosphatase. Briefly: human IAP activators, dose response, biochemical, luminescent, uHTS hits, set 2 (AID 488817).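 Note: potency of activators that raise enzyme activity.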 The format is functional.
For experiment [14], the target named is T4, High affinity choline transporter 1 (Homo sapiens, UniProt Q9GZV3).
T4 sequence (Q9GZV3 whole entry): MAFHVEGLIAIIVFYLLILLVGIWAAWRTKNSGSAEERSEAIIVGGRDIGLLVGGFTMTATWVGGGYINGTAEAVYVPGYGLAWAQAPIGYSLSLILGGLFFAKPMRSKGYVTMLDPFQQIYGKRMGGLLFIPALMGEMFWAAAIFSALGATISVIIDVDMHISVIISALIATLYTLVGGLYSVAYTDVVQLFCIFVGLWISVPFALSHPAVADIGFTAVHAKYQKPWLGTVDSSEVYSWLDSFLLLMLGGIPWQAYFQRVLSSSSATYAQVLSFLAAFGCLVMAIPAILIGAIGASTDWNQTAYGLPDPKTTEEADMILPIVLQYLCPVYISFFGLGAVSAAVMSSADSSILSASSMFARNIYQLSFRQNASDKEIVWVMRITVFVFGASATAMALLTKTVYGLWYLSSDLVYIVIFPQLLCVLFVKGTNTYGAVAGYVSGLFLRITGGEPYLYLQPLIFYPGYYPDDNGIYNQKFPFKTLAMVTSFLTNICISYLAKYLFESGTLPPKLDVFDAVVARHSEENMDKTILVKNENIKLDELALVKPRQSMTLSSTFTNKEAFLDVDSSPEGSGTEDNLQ
As to the kind of experiment: CHT inhibitors, dose response, cell-based, 5-point CRC, membrane potential dye (AID 504840). Format: functional.

In experiment [15] the target is T5, Streptokinase A (Streptococcus pyogenes serotype M1, UniProt P10520).
T5 sequence (P10520 whole entry): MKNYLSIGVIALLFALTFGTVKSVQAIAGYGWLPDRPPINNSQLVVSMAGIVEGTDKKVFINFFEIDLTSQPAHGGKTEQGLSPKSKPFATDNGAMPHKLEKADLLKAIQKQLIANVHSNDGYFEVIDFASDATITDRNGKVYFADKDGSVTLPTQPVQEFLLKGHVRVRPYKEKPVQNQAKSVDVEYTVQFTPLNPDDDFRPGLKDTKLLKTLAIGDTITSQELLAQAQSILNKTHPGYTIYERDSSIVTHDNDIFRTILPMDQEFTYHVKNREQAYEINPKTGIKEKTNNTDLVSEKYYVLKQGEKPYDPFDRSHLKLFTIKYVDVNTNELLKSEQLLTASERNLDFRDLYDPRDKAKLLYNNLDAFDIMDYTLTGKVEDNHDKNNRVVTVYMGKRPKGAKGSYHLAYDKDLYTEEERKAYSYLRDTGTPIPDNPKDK
Briefly: S. pyogenes streptokinase expression inhibitors, potency, dose response, plasminogen activation absorbance, OD405 (AID 1914).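 Note: secreted streptokinase activity via plasminogen activation per viability signal from cell pellet.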 The format is functional, Streptococcus pyogenes M1 GAS.

The subject of experiment [16] is Streptococcus sp. 'group A'. As to the kind of experiment: growth inhibition of control SK(-) GAS strain, dose response, counter-screen for streptokinase expression inhibitor project, luminescence, kanamycin, BacTiterGlo, confirmation (AID 1900). Format: functional, organism-based.
A short description of experiment [17]: growth induction of Burl-1 ts yeast mutant, dose response, counter-screen for SUMOylation pathway inhibitor project, whole organism, S. cerevisiae, luminescence (AID 463199). Format: functional.
The target of experiment [18] is Nuclear receptor ROR-alpha (Homo sapiens, UniProt P35398). Briefly: ROR modulator nuclear receptor reporter panel, late-stage follow-up, ROR modulator project, cell-based, luciferase reporter, panel member RORA (AID 2117).
Chain of Nuclear receptor ROR-alpha (P35398 whole entry): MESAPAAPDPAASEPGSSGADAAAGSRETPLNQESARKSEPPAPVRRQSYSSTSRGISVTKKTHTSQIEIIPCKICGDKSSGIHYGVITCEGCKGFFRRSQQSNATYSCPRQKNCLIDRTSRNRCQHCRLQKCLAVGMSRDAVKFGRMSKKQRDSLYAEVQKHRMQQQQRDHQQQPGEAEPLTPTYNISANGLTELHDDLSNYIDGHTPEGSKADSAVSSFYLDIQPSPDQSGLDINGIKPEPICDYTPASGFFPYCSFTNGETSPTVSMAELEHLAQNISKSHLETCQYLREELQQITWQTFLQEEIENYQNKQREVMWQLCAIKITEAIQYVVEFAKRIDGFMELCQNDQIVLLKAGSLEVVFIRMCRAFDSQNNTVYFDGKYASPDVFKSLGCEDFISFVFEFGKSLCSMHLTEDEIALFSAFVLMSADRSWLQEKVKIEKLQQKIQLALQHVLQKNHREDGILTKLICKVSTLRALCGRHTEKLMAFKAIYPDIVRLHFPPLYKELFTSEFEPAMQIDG
The target in experiment [19] is Nuclear receptor ROR-gamma (Homo sapiens, UniProt P51449). Briefly: ROR modulator nuclear receptor reporter panel, late-stage follow-up, ROR modulator project, cell-based, luciferase reporter, panel member RORG (AID 2117).
Chain of Nuclear receptor ROR-gamma (P51449 whole entry): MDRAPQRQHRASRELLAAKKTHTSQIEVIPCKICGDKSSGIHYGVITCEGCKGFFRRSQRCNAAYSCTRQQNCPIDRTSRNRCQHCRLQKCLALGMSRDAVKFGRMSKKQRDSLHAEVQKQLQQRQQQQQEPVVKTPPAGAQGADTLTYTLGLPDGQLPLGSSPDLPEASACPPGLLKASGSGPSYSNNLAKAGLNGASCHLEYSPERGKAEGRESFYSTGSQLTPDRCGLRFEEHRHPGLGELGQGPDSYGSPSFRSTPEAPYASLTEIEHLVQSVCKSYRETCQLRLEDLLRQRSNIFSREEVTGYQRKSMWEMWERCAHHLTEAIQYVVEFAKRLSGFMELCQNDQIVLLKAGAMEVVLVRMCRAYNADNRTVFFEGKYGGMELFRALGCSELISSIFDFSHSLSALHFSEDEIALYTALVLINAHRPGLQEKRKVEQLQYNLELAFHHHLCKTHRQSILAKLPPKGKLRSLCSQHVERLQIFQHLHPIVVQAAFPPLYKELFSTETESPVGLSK
Experiment [20] concerns the target T6, Kappa-type opioid receptor (Homo sapiens, UniProt P41145). Briefly: SAR analysis of Antagonists of the Kappa Opioid Receptor (KOR) using an Image-Based Assay - Set 2. [Related pubchem assays (depositor defined):AID1777, AID1785, AID1786, AID1966, AID2133, AID2136, AID2284, AID2285, AID2348]. Format: functional.
For experiment [21], the target named is T6, Kappa-type opioid receptor. Briefly: KOR agonist analogs, arrestin-GFP redistribution, SAR follow-up, imaging, image-based, set 3 (AID 488833). The format is functional.
The target of experiment [22] is T7, Delta-type opioid receptor (Homo sapiens, UniProt P41143). As to the kind of experiment: SAR Analysis of Agonists of the DOR Receptor using an Image-Based Assay - Set 2. [Related pubchem assays (depositor defined):AID1777, AID1785, AID1786, AID1966, AID2133, AID2136, AID2284, AID2285, AID2370]. Format: functional.
T7 sequence (P41143 whole entry): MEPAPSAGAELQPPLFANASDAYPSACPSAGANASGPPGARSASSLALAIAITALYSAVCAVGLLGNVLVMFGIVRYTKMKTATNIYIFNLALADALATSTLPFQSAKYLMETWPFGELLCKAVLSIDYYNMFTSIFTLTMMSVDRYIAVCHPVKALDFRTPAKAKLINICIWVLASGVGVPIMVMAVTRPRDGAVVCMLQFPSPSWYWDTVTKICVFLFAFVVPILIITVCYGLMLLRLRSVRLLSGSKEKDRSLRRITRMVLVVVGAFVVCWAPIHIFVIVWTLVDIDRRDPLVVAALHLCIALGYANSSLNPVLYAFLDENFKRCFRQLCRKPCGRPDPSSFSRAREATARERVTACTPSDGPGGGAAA
Experiment [23] deals with T6, Kappa-type opioid receptor. As to the kind of experiment: SAR analysis of small molecule agonists of the kappa opioid receptor via a luminescent beta-arrestin assay - Set 3. [Related pubchem assays (depositor defined):AID1777, AID1785, AID1786, AID1966, AID2133, AID2136, AID2284, AID2500]. Format: functional.
In experiment [24] the target is T7, Delta-type opioid receptor. As to the kind of experiment: SAR Analysis of Agonists of the DOR Receptor using an Image-Based Assay - Set 3. [Related pubchem assays (depositor defined):AID1777, AID1786]. The format is functional.
The target in experiment [25] is T7, Delta-type opioid receptor. Briefly: SAR Analysis of Antagonists of the DOR Receptor using an Image-Based Assay - Set 2. [Related pubchem assays (depositor defined):AID1777, AID1785, AID1786, AID1966, AID2133, AID2136, AID2284, AID2285, AID2357]. The format is functional.
Experiment [26] addresses T8, Mu-type opioid receptor (Homo sapiens, UniProt P35372). Briefly: SAR Analysis of Antagonists of the MOR Receptor using an Image-Based Assay - Set 2. [Related pubchem assays (depositor defined):AID1777, AID1785, AID1786, AID1966, AID2133, AID2136, AID2284, AID2285, AID2420]. The format is functional.
Experiment [27] deals with T8, Mu-type opioid receptor. Briefly: SAR Analysis of Agonists of the MOR Receptor using an Image-Based Assay - Set 3. [Related pubchem assays (depositor defined):AID1777, AID1785, AID1786, AID1966, AID2133, AID2136, AID2284, AID2285, AID2352]. Format: functional.
The target in experiment [28] is T8, Mu-type opioid receptor. As to the kind of experiment: SAR Analysis of Agonists of the MOR Receptor using an Image-Based Assay - Set 2. [Related pubchem assays (depositor defined):AID1777, AID1785, AID1786, AID1966, AID2133, AID2136, AID2284, AID2285, AID2352]. Format: functional.

T6 sequence (P41145 whole entry): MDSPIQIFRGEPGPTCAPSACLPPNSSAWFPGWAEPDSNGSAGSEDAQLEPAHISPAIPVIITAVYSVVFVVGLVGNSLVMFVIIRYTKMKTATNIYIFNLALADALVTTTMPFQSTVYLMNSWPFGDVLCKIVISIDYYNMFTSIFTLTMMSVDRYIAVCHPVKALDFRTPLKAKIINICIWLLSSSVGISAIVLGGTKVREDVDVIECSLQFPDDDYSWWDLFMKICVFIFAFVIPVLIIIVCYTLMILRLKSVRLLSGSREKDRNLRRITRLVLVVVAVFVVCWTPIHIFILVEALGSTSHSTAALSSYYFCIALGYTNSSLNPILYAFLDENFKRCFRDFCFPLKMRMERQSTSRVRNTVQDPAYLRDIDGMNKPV
T8 sequence (P35372 whole entry): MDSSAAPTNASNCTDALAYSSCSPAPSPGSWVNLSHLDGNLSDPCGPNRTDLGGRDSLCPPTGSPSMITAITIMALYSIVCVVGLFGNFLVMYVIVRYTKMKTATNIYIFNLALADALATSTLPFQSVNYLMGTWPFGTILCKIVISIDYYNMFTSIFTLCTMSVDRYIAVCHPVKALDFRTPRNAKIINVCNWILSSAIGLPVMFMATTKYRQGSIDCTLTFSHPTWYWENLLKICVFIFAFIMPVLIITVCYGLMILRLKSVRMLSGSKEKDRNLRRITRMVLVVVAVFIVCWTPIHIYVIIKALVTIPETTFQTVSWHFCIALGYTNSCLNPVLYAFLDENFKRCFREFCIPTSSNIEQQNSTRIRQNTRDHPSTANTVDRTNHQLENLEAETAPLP
Chain of Sphingosine 1-phosphate receptor 5 (Q9H228 whole entry): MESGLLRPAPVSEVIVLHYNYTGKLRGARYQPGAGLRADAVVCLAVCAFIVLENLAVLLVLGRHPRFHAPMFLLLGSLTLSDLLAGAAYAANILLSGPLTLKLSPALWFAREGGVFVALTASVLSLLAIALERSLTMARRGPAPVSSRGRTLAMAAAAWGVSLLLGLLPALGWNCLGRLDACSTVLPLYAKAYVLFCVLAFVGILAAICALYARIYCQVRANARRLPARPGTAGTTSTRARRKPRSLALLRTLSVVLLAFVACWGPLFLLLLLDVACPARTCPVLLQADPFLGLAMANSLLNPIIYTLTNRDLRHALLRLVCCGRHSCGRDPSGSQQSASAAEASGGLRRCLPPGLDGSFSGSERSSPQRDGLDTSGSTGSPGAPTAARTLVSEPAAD

On to `Cc1ccc(NC(=O)c2ccc(-c3cc(Cl)ccc3Cl)o2)c(C)c1`, for which the IC50 in experiment [1] was > 25 µM (inactive); in experiment [2], 0.182 µM (active); in [3], > 25 µM (inactive); in experiment [4] it was > 25 µM (inactive); in experiment [5], > 25 µM (inactive).
`O=[N+]([O-])c1c(O)oc2ccccc2/c1=N\C(c1ccccc1)c1ccccc1`: the IC50 in experiment [6] is > 119 µM (inactive); in experiment [7], 2.79 µM (active); in [8], > 119 µM (inactive).
Turning to `Cc1cccc(CC(Cc2nc3ccccc3[nH]2)c2nc3ccccc3[nH]2)c1` (stereo not drawn), the EC50 in [9] was 29.8 µM (active); in [10] it was 28.9 µM (active); in experiment [11], 62.1 µM (active); in experiment [12], 26.7 µM (active); in experiment [13] it was 47.7 µM (active); in experiment [15], > 150 µM (not active). The concentration giving a half-maximal response (EC50) in [16] was 9.33 µM (active). In addition, in experiment [14], the IC50 is 12.6 µM (active).
As to `CC(C)CCn1c(=O)c2ccccc2c2ccccc2c1=O`, in experiment [17], the AC50 was 58.1 µM (active).
Turning to `CC(C)(C)c1ccc(S(=O)(=O)Nc2ccc(C(O)(C(F)(F)F)C(F)(F)F)cc2)cc1`, the values for the IC50 in [18] and in experiment [19] were 2.47 µM (active) and > 20 µM (inactive), respectively.
On to `Clc1ccc(CSc2nnc(-c3ccccn3)n2Cc2cccs2)cc1Cl`, for which the IC50 in [20], in experiment [25] and in [26] was > 32 µM (inactive) each time. Besides, the concentration giving a half-maximal response (EC50) is 0.349 µM (active) in experiment [21]; > 32 µM (inactive) in experiment [22]; 0.454 µM (active) in [23]; > 64 µM (inactive) in experiment [24]; > 32 µM (inactive) in [27]; > 32 µM (inactive) in [28].
